Read-outs that look alike come from different tables or passages of the source.
What was measured:
[1] = tested on: human fibroblast; test: in vitro
Description: (§1) These tests included an IL-12 mouse model test to determine compound efficacy, verification of MIC50 for CP, cytotoxicity test for fibroblasts and yeast to determine potential toxic effects, a Human ether-a-go-go-related gene (hERG) test to determine potential cardiotoxicity, an AMES test tp determine mutagenic potential, a Safety Screen 44 test to determine common negative off-target drug interastion (Eurofins Cerep, SA, France), a cytochrome P450 (CYP) test to determine potential liver toxicity, a maximum tolerated dose, test, a Pharmacokinetics (PK) test to determine fate of the substance administered to a living organism tests for plasma stability in human and mouse, to measure the degradation of compound in plasma MClint and HClint test to determine in vitro intrinsic clearance for Mouse and Human, and kinetic solubility and plasma protein binding tests in mouse and human.

[2] = tested on: S. cerevisiae; test: in vitro; settings: Saccharomyces cerevisiae
Description: as §1

Structure (SMILES) | concentrations at which not toxic, human fibroblast cytotoxicity testing [1] [µM] | concentrations at which not toxic, S. cerevisiae cytotoxicity testing [2] [µM] | concentrations at which not toxic, human fibroblast cytotoxicity testing ([1]; human) [µM]
CC(C)NC(=O)Cc1ccc(Oc2nc3ccc(F)cc3s2)cc1O [NZ405, 2-{4-[(6-fluoro-1,3-benzothiazol-2-yl)oxy]-2-hydroxyphenyl}-N-(propan-2-yl)acetamide] | ≥ 100 | ≥ 100 | –
CCOC(=O)[C@@H](C)Oc1ccc(Oc2nc3ccc(F)cc3s2)cc1 [NZ-251, ethyl (2R)-2-{4-[(6-fluoro-1,3-benzothiazol-2-yl)oxy]phenoxy}propanoate] | – | ≥ 100 | ≥ 100
O=C(O)Cc1ccc(Oc2nc3ccc(Cl)cc3s2)cc1 [NZ-287, 2-{4-[(6-chloro-1,3-benzothiazol-2-yl)oxy]phenyl}acetic acid] | – | ≥ 100 | ≥ 100
CON(C)C(=O)COc1ccc(Oc2cnc3cc(Cl)ccc3n2)cc1 [NZ-290, 2-{4-[(6-chloroquinoxalin-2-yl)oxy]phenoxy}-N-methoxy-N-methylacetamide] | ≥ 100 | ≥ 100 | –
CONC(=O)Cc1ccc(Oc2nc3ccc(Cl)cc3s2)cc1 [NZ-293, 2-{4-[(6-chloro-1,3-benzothiazol-2-yl)oxy]phenyl}-N-methoxyacetamide] | – | ≥ 100 | ≥ 100
COC(=O)Cc1ccc(Oc2nc3ccc(F)cc3s2)cc1 [NZ-294, methyl 2-{4-[(6-fluoro-1,3-benzothiazol-2-yl)oxy]phenyl}acetate] | – | ≥ 100 | ≥ 100
O=C(O)Cc1ccc(Oc2cnc3cc(Cl)ccc3n2)cc1 [NZ-298, 2-{4-[(6-chloroquinoxalin-2-yl)oxy]phenyl}acetic acid] | – | ≥ 100 | ≥ 100
O=C(O)Cc1ccc(Oc2nc3ccc(F)cc3s2)cc1 [NZ-299, 2-{4-[(6-fluoro-1,3-benzothiazol-2-yl)oxy]phenyl}acetic acid] | ≥ 100 | ≥ 100 | –
CONC(=O)Cc1ccc(Oc2nc3ccc(F)cc3s2)cc1 [NZ-300, 2-{4-[(6-fluoro-1,3-benzothiazol-2-yl)oxy]phenyl}-N-methoxyacetamide] | ≥ 100 | ≥ 100 | –
CONC(=O)Cc1ccc(Oc2cnc3cc(Cl)ccc3n2)cc1 [NZ-301, 2-{4-[(6-chloroquinoxalin-2-yl)oxy]phenyl}-N-methoxyacetamide] | ≥ 100 | ≥ 100 | –
COC(=O)COc1ccc(Oc2nc3ccc(F)cc3s2)cc1 [NZ-303, methyl 2-{4-[(6-fluoro-1,3-benzothiazol-2-yl)oxy]phenoxy}acetate] | – | – | ≥ 100
O=C(O)COc1ccc(Oc2nc3ccc(F)cc3s2)cc1 [NZ-304, 2-{4-[(6-fluoro-1,3-benzothiazol-2-yl)oxy]phenoxy}acetic acid] | – | ≥ 100 | ≥ 100
CONC(=O)COc1ccc(Oc2nc3ccc(F)cc3s2)cc1 [NZ-305, 2-{4-[(6-fluoro-1,3-benzothiazol-2-yl)oxy]phenoxy}-N-methoxyacetamide] | – | ≥ 100 | ≥ 100
CCNC(=O)COc1ccc(Oc2cnc3cc(Cl)ccc3n2)cc1 [NZ-306, 2-{4-[(6-chloroquinoxalin-2-yl)oxy]phenoxy}-N-ethylacetamide] | ≥ 100 | ≥ 100 | –
CC(C)NC(=O)COc1ccc(Oc2cnc3cc(Cl)ccc3n2)cc1 [NZ-307, 2-{4-[(6-chloroquinoxalin-2-yl)oxy]phenoxy}-N-(propan-2-yl)acetamide] | ≥ 100 | ≥ 100 | –
COC(=O)C(C)c1ccc(Oc2cnc3cc(Cl)ccc3n2)cc1 (stereo not drawn) [NZ-308, methyl 2-{4-[(6-chloroquinoxalin-2-yl)oxy]phenyl}propanoate] | – | ≥ 100 | ≥ 100
CC(C(=O)O)c1ccc(Oc2cnc3cc(Cl)ccc3n2)cc1 (stereo not drawn) [NZ-309, 2-{4-[(6-chloroquinoxalin-2-yl)oxy]phenyl}propanoic acid] | – | ≥ 100 | ≥ 100
CC(C(=O)O)c1ccc(Oc2nc3ccc(Cl)cc3s2)cc1 (stereo not drawn) [NZ-312, 2-{4-[(6-chloro-1,3-benzothiazol-2-yl)oxy]phenyl}propanoic acid] | – | ≥ 100 | ≥ 100
CONC(=O)C(O)c1ccc(Oc2nc3ccc(Cl)cc3s2)cc1 (stereo not drawn) [NZ-338, 2-{4-[(6-chloro-1,3-benzothiazol-2-yl)oxy]phenyl}-2-hydroxy-N-methoxyacetamide] | – | – | ≥ 100

Structure (SMILES) | concentrations at which not toxic, human fibroblast cytotoxicity testing [1] [µM] | concentrations at which not toxic, S. cerevisiae cytotoxicity testing [2] [µM] | concentrations at which not toxic, human fibroblast cytotoxicity testing ([1]; human) [µM]
CN(C)C(=O)Nc1ccc(Oc2cnc3cc(Cl)ccc3n2)cc1 [NZ-343, 1-{4-[(6-chloroquinoxalin-2-yl)oxy]phenyl}-3,3-dimethylurea] | – | – | ≥ 100
CC(C)NC(=O)Nc1ccc(Oc2cnc3cc(F)ccc3n2)cc1 [NZ-345, 1-{4-[(6-fluoroquinoxalin-2-yl)oxy]phenyl}-3-(propan-2-yl)urea] | ≥ 100 | – | –
CC(C)NC(=O)Nc1ccc(Oc2ccc3cc(Cl)ccc3n2)cc1 [NZ-346, 1-{4-[(6-chloroquinolin-2-yl)oxy]phenyl}-3-(propan-2-yl)urea] | ≥ 100 | – | –
NCc1ccc(Oc2nc3ccc(Cl)cc3s2)cc1 [NZ-348, {4-[(6-chloro-1,3-benzothiazol-2-yl)oxy]phenyl}methanamine] | – | 25 to 50 | –
CN(C)C(=O)NCc1ccc(Oc2nc3ccc(Cl)cc3s2)cc1 [NZ-349, 1-({4-[(6-chloro-1,3-benzothiazol-2-yl)oxy]phenyl}methyl)-3,3-dimethylurea] | – | ≥ 100 | –
CNC(=O)NCc1ccc(Oc2nc3ccc(Cl)cc3s2)cc1 [NZ-350, 1-({4-[(6-chloro-1,3-benzothiazol-2-yl)oxy]phenyl}methyl)-3-methylurea] | – | ≥ 100 | –
CC(C)(C)OC(=O)Nc1ccc(Oc2nc3ccc(Cl)cc3s2)cc1 [NZ-351, tert-butyl N-{4-[(6-chloro-1,3-benzothiazol-2-yl)oxy]phenyl}carbamate] | – | ≥ 100 | –
Nc1ccc(Oc2nc3ccc(Cl)cc3s2)cc1 [NZ-352, 4-[(6-chloro-1,3-benzothiazol-2-yl)oxy]aniline] | – | 25 to 50 | –
CNC(=O)Nc1ccc(Oc2nc3ccc(Cl)cc3s2)cc1 [NZ-353, 1-{4-[(6-chloro-1,3-benzothiazol-2-yl)oxy]phenyl}-3-methylurea] | – | ≥ 100 | –
CN(C)C(=O)Nc1ccc(Oc2nc3ccc(Cl)cc3s2)cc1 [NZ-354, 1-{4-[(6-chloro-1,3-benzothiazol-2-yl)oxy]phenyl}-3,3-dimethylurea] | – | 50 to 100 | –
COC(=O)C(OC)c1ccc(Oc2nc3ccc(Cl)cc3s2)cc1 (stereo not drawn) [NZ-355, methyl 2-{4-[(6-chloro-1,3-benzothiazol-2-yl)oxy]phenyl}-2-methoxyacetate] | – | ≥ 100 | –
COC(C(=O)O)c1ccc(Oc2nc3ccc(Cl)cc3s2)cc1 (stereo not drawn) [NZ-356] | – | ≥ 100 | –
CONC(=O)C(OC)c1ccc(Oc2nc3ccc(Cl)cc3s2)cc1 (stereo not drawn) [NZ-357, 2-{4-[(6-chloro-1,3-benzothiazol-2-yl)oxy]phenyl}-N,2-dimethoxyacetamide] | – | ≥ 100 | –
Cc1ccc2nc(Oc3ccc(NC(=O)NC(C)C)cc3)sc2c1 [NZ-358, 1-{4-[(6-methyl-1,3-benzothiazol-2-yl)oxy]phenyl}-3-(propan-2-yl)urea] | – | ≥ 100 | –
CC(C)NC(=O)Nc1ccc(Oc2nc3ccc(Br)cc3s2)cc1 [NZ-359, 1-{4-[(6-bromo-1,3-benzothiazol-2-yl)oxy]phenyl}-3-(propan-2-yl)urea] | – | ≥ 100 | –
CC(C)NC(=O)Nc1ccc(Oc2nc3ccccc3s2)cc1 [NZ-360, 1-{4-(1,3-benzothiazol-2-yloxy)phenyl]-3-(propan-2-yl)urea] | – | ≥ 100 | –
C[C@@H](Oc1ccc(Oc2nc3ccc(Cl)cc3o2)cc1)C(=O)O [fenoxaprop-p, (R)-2-[4-(6-chlorobenzoxazol-2-yloxy)phenoxy]propionic acid, reference compound] | ≥ 100 | – | –
CCOC(=O)[C@@H](C)Oc1ccc(Oc2nc3ccc(Cl)cc3o2)cc1 [fenoxaprop-p-ethyl, ethyl (2R)-2-{4-[(6-chloro-1,3-benzoxazol-2-yl)oxy]phenoxy}propanoate, reference compound] | – | – | ≥ 100

From patent US11083717B2, “Compositions and methods for drug sensitization of parasites” (The Texas A&M University System, priority 2015, dated 2021)
